Test results as given in ChEMBL document CHEMBL4004795, “Polycycloiridals with a Cyclopentane Ring from Iris tectorum” (J Nat Prod, 2017).

Test system: BV-2
Assay: Inhibition of LPS-induced nitric oxide production in mouse BV2 cells pretreated for 24 hrs followed by LPS-stimulation after 24 hrs by Griess assay
Format: functional, cell-based

| SMILES | IC50 |
| --- | --- |
| C=C(C)[C@H]1CC[C@@](C)(O)[C@@H]1/C=C/C(C)=C/[C@H]1C[C@@]23[C@H](OCCC[C@@H]2/C(=C(\C)C=O)CC[C@]3(C)O)O1 | > 10 µM |
| C=C(C)[C@@H]1CC[C@](C)(O)[C@H]1/C=C/C(C)=C/[C@H]1C[C@@]23[C@H](OCCC[C@@H]2/C(=C(/C)C=O)CC[C@]3(C)O)O1 | > 10 µM |
| CC(/C=C/[C@@H]1[C@@H](C(C)(C)O)CC[C@@]1(C)O)=C\[C@H]1C[C@@]23[C@H](OCCC[C@@H]2/C(=C(\C)C=O)CC[C@]3(C)O)O1 | > 10 µM |
| CC(/C=C/[C@H]1[C@H](C(C)(C)O)CC[C@]1(C)O)=C\[C@H]1C[C@@]23[C@H](OCCC[C@@H]2/C(=C(\C)C=O)CC[C@]3(C)O)O1 | > 10 µM |

More lines, now with the values ahead:

| IC50 | SMILES |
| --- | --- |
| > 10 µM | C/C(C=O)=C1\CC[C@](C)(O)[C@]23C[C@H](/C=C(C)/C=C/[C@@H]4[C@@H](C(C)(C)O)CC[C@@]4(C)O)O[C@H]2OCCC[C@H]13 |
| 0.54 µM | CC(C)=CCC/C(C)=C\[C@H]1C=C(CO)[C@@H]2CC[C@]3([C@H](CCCO)/C(=C(/C)C=O)CC[C@]3(C)O)[C@@H]2O1 |
| > 10 µM | C=C(C)[C@H]1CC[C@@](C)(O)[C@@H]1/C=C/C(C)=C/[C@H]1C[C@@]23[C@H](OCCC[C@@H]2/C(=C(/C)C=O)CC[C@]3(C)O)O1 |
| 2.36 µM | COc1cc(/C=C/C(=O)CC(=O)/C=C/c2ccc(O)c(OC)c2)ccc1O [CURCUMIN] |

Test system: BV-2
Assay: Potency index, ratio of curcumin IC50 to compound IC50 for inhibition of LPS-induced nitric oxide production in mouse BV2 cells
Format: functional

| SMILES | Ratio IC50 |
| --- | --- |
| CC(C)=CCC/C(C)=C\[C@H]1C=C(CO)[C@@H]2CC[C@]3([C@H](CCCO)/C(=C(/C)C=O)CC[C@]3(C)O)[C@@H]2O1 | 3 |
